Reference: patent US9944602B2, “Piperidinone herbicides” (E. I. DU PONT DE NEMOURS AND COMPANY, priority 2014, dated 2018)

What was measured:
Type in all cases: in vivo
[1] = system: ryegrass, Italian (Italian ryegrass, Lolium multiflorum); experiment: Test A preemergence ryegrass, Italian; conditions: 0 to 100 scale, 0 no effect, 100 complete control
Source text: (§1) Seeds of plant species selected from barnyardgrass (Echinochloa crus-galli), kochia (Kochia scoparia), ragweed (common ragweed, Ambrosia elatior), ryegrass, Italian (Italian ryegrass, Lolium multiflorum), crabgrass, large (large crabgrass, Digitaria sanguinalis), foxtail, giant (giant foxtail, Setaria faberii), morningglory (Ipomoea spp.), pigweed (Amaranthus retroflexus), velvetleaf (Abutilon theophrasti), wheat (Triticum aestivum), and corn (Zea mays) were planted into a blend of loam soil and sand and treated preemergence with a directed soil spray using test chemicals formulated in a non-phytotoxic solvent mixture which included a surfactant.
(§2) At the same time, plants selected from these crop and weed species and also blackgrass (Alopecurus myosuroides), and galium (catchweed bedstraw, Galium aparine) were planted in pots containing the same blend of loam soil and sand and treated with postemergence applications of test chemicals formulated in the same manner. Plants ranged in height from 2 to 10 cm and were in the one- to two-leaf stage for the postemergence treatment. Treated plants and untreated controls were maintained in a greenhouse for approximately 10 d, after which time all treated plants were compared to untreated controls and visually evaluated for injury. Plant response ratings, summarized in Table A, are based on a 0 to 100 scale where 0 is no effect and 100 is complete control. A dash (-) response means no test result.

[2] = system: ragweed (common ragweed, Ambrosia elatior); experiment: Test A preemergence ragweed; conditions: 0 to 100 scale, 0 no effect, 100 complete control
Source text: as §1, §2

kochia (Kochia scoparia) [3] = experiment: Test A preemergence kochia; conditions: 0 to 100 scale, 0 no effect, 100 complete control
Source text: as §1, §2

[4] = system: foxtail, giant (giant foxtail, Setaria faberii); experiment: Test A postemergence foxtail, giant; conditions: 0 to 100 scale, 0 is no effect, 100 is complete control
Source text: as §1, §2

corn (Zea mays) = experiment: Test A postemergence corn; conditions: 0 to 100 scale, 0 is no effect, 100 is complete control
Source text: as §1, §2

rice (Oryza sativa) = experiment: Test B flooded paddy test rice; conditions: Table B, Flood, 500 g ai/ha, scale 0 to 100
Method: (§3) Plant species in the flooded paddy test selected from rice (Oryza sativa), sedge, umbrella (small-flower umbrella sedge, Cyperus difformis), ducksalad (Heteranthera limosa), and barnyardgrass (Echinochloa crus-galli) were grown to the 2-leaf stage for testing. At the time of treatment, test pots were flooded to 3 cm above the soil surface, treated by application of test compounds directly to the paddy water, and then maintained at that water depth for the duration of the test. Treated plants and controls were maintained in a greenhouse for 13 to 15 d, after which time all species were compared to controls and visually evaluated. […] A dash (-) response means no test result.

[5] = system: ragweed (common ragweed, Ambrosia elatior); experiment: Test A postemergence ragweed; conditions: 0 to 100 scale, 0 is no effect, 100 is complete control
Source text: as §1, §2

[6] = system: wheat (Triticum aestivum); experiment: Test A postemergence wheat; conditions: 0 to 100 scale, 0 is no effect, 100 is complete control
Source text: as §1, §2

[7] = system: foxtail, giant (giant foxtail, Setaria faberii); experiment: Test A preemergence foxtail, giant; conditions: 0 to 100 scale, 0 no effect, 100 complete control
Source text: as §1, §2

[8] = system: galium (catchweed bedstraw, Galium aparine); experiment: Test A postemergence galium; conditions: 0 to 100 scale, 0 is no effect, 100 is complete control
Source text: as §1, §2

[9] = system: pigweed (Amaranthus retroflexus); experiment: Test A preemergence pigweed; conditions: 0 to 100 scale, 0 no effect, 100 complete control
Source text: as §1, §2

[10] = system: blackgrass (Alopecurus myosuroides); experiment: Test A postemergence blackgrass; conditions: 0 to 100 scale, 0 is no effect, 100 is complete control
Source text: as §1, §2

[11] = system: ducksalad (Heteranthera limosa); experiment: Test B flooded paddy test ducksalad; conditions: Table B, Flood, 500 g ai/ha, scale 0 to 100
Method: as §3

[12] = system: barnyardgrass (Echinochloa crus-galli); experiment: Test B flooded paddy test barnyardgrass; conditions: Table B, Flood, 500 g ai/ha, scale 0 to 100
Method: as §3

kochia (Kochia scoparia) [13] = experiment: Test A postemergence kochia; conditions: 0 to 100 scale, 0 is no effect, 100 is complete control
Source text: as §1, §2

[14] = system: ryegrass, Italian (Italian ryegrass, Lolium multiflorum); experiment: Test A postemergence ryegrass, Italian; conditions: 0 to 100 scale, 0 is no effect, 100 is complete control
Source text: as §1, §2

[15] = system: sedge, umbrella (small-flower umbrella sedge, Cyperus difformis); experiment: Test B flooded paddy test sedge, umbrella; conditions: Table B, Flood, 500 g ai/ha, scale 0 to 100
Method: as §3

[16] = system: pigweed (Amaranthus retroflexus); experiment: Test A postemergence pigweed; conditions: 0 to 100 scale, 0 is no effect, 100 is complete control
Source text: as §1, §2

[17] = system: barnyardgrass (Echinochloa crus-galli); experiment: Test A preemergence barnyardgrass; conditions: 0 to 100 scale; for Barnyardgrass plant response rating: 0 no effect, 100 complete control
Source text: as §1, §2

[18] = system: barnyardgrass (Echinochloa crus-galli); experiment: Test A postemergence barnyardgrass; conditions: 0 to 100 scale, 0 is no effect, 100 is complete control
Source text: as §1, §2

Row | Structure (SMILES) | Ryegrass, Italian plant response rating ([1]; 125 g ai/ha) | Ryegrass, Italian plant response rating ([1]; 500 g ai/ha) | Ragweed plant response rating ([2]; 125 g ai/ha) | Ragweed plant response rating ([2]; 500 g ai/ha) | Kochia plant response rating (kochia (Kochia scoparia) [3]; 125 g ai/ha) | Kochia plant response rating (kochia (Kochia scoparia) [3]; 500 g ai/ha) | Plant response rating, Foxtail, Giant ([4]; 125 g ai/ha) | Plant response rating, Foxtail, Giant ([4]; 500 g ai/ha) | Plant response rating, Corn (corn (Zea mays); 125 g ai/ha) | Plant response rating, Corn (corn (Zea mays); 500 g ai/ha) | Plant response rating, Ragweed ([5]; 125 g ai/ha) | Plant response rating, Ragweed ([5]; 500 g ai/ha) | Plant response rating, Wheat ([6]; 125 g ai/ha) | Plant response rating, Wheat ([6]; 500 g ai/ha) | Foxtail, Giant plant response rating ([7]; 125 g ai/ha) | Foxtail, Giant plant response rating ([7]; 500 g ai/ha) | Plant response rating, Galium ([8]; 125 g ai/ha) | Plant response rating, Galium ([8]; 500 g ai/ha) | Pigweed plant response rating ([9]; 125 g ai/ha) | Pigweed plant response rating ([9]; 500 g ai/ha) | also measured
1 | Cc1c(F)cccc1NC(=O)C1C(=O)NCCC1c1cccc(C(F)(F)F)c1 (racemic) [Compound 26] | 0 | 50 | 0 | 0 | 0 | 0 | 30 | 90 | 20 | 40 | 0 | 0 | 0 | 20 | 60 | 90 | 0 | 0 | 0 | 0 | Plant response rating (rice (Oryza sativa)): 0; Plant response rating, Blackgrass ([10]; 125 g ai/ha): 0; Plant response rating, Blackgrass ([10]; 500 g ai/ha): 40; Plant response rating [11]: 50; Plant response rating [12]: 40; Plant response rating, Kochia (kochia (Kochia scoparia) [13]; 125 g ai/ha): 0; Plant response rating, Kochia (kochia (Kochia scoparia) [13]; 500 g ai/ha): 0; Plant response rating, Ryegrass, Italian ([14]; 125 g ai/ha): 20; Plant response rating, Ryegrass, Italian ([14]; 500 g ai/ha): 20; Plant response rating [15]: 0; Plant response rating, Pigweed ([16]; 125 g ai/ha): 0; Plant response rating, Pigweed ([16]; 500 g ai/ha): 0; Barnyardgrass plant response rating ([17]; 125 g ai/ha): 30; Barnyardgrass plant response rating ([17]; 500 g ai/ha): 90; Plant response rating, Barnyardgrass ([18]; 125 g ai/ha): 30; Plant response rating, Barnyardgrass ([18]; 500 g ai/ha): 80
2 | O=C1NCCC(c2cccc(OC(F)F)c2)C1C(=O)Nc1cccc(F)c1F (racemic) [Compound 46] | 0 | 20 | 0 | 0 | 0 | 0 | 20 | 80 | 0 | 50 | 0 | 0 | 0 | 50 | 90 | 90 | 0 | 0 | 0 | 0 | Plant response rating (rice (Oryza sativa)): 0; Plant response rating, Blackgrass ([10]; 125 g ai/ha): 0; Plant response rating, Blackgrass ([10]; 500 g ai/ha): 40; Plant response rating [11]: 100; Plant response rating [12]: 65; Plant response rating, Kochia (kochia (Kochia scoparia) [13]; 125 g ai/ha): 0; Plant response rating, Kochia (kochia (Kochia scoparia) [13]; 500 g ai/ha): 0; Plant response rating, Ryegrass, Italian ([14]; 125 g ai/ha): 0; Plant response rating, Ryegrass, Italian ([14]; 500 g ai/ha): 0; Plant response rating [15]: 0; Plant response rating, Pigweed ([16]; 125 g ai/ha): 0; Plant response rating, Pigweed ([16]; 500 g ai/ha): 0; Barnyardgrass plant response rating ([17]; 125 g ai/ha): 50; Barnyardgrass plant response rating ([17]; 500 g ai/ha): 90; Plant response rating, Barnyardgrass ([18]; 125 g ai/ha): 60; Plant response rating, Barnyardgrass ([18]; 500 g ai/ha): 90
3 | O=C1NCCC(c2ccccc2C(F)(F)F)C1C(=O)Nc1cccc(F)c1F (racemic) [Compound 8] | 0 | 0 | 0 | 0 | 0 | 0 | 0 | 0 | 0 | 0 | 0 | 0 | 0 | 0 | 0 | 0 | 0 | 0 | 0 | 0 | Plant response rating, Blackgrass ([10]; 125 g ai/ha): 0; Plant response rating, Blackgrass ([10]; 500 g ai/ha): 0; Plant response rating, Kochia (kochia (Kochia scoparia) [13]; 125 g ai/ha): 0; Plant response rating, Kochia (kochia (Kochia scoparia) [13]; 500 g ai/ha): 0; Plant response rating, Ryegrass, Italian ([14]; 125 g ai/ha): 0; Plant response rating, Ryegrass, Italian ([14]; 500 g ai/ha): 0; Plant response rating, Pigweed ([16]; 125 g ai/ha): 0; Plant response rating, Pigweed ([16]; 500 g ai/ha): 0; Barnyardgrass plant response rating ([17]; 125 g ai/ha): 0; Plant response rating, Barnyardgrass ([17]; 500 g ai/ha, 0 is no effect, 100 is complete control): 0; Plant response rating, Barnyardgrass ([18]; 125 g ai/ha): 0; Plant response rating, Barnyardgrass ([18]; 500 g ai/ha): 0
